Patent US20190077766A1, “Compositions For APP-Selective BACE Inhibition And Uses Therefor” (NantNeuro, LLC, priority 2015, published 2019)
pIC50: −log10 of the molar value. Values joined by “and” are separate entries in the source; they are usually repeats but may differ in a detail not shown here. Identical values can stand only once. Counter-ions that a name gives are not always drawn. Like-named read-outs stand apart in the source and are kept apart here.

What was measured:
BACE1 = molecular target: T1, BACE1 (Homo sapiens, UniProt P56817); experiment: in vitro BACE inhibition assay (Primary BACE1 IC50); assay type: biochemical
T1 construct: purchased R&D 931-AS-050
Excerpt: ABBI Assay: APP Binding BACE Inhibitor (ABBI) activity of any of the compounds described herein can readily be verified using, for example, assays described herein. Basically, in certain embodiments a pair the assays are utilized to identify ABBI compounds that inhibit BACE cleavage of the MBP-C125 APP substrate, resulting in the inhibition of the production of C99 and the β-site peptide substrate (P5-P5′) and also interacts with APP, for example, as measured by surface plasmon resonance (SPR) analysis. In one illustrative embodiment, an MBP-C125 APP695 wt fusion protein can be used as one of the substrates and the second substrate can be the commercially available P5-P5′ fluorescence substrate.

[1] = test system: CHO-7W cells that were stably transfected with human APP (wildtype); experiment: Secondary cell-based APP processing assay (sAPPalpha, sAPPbeta, Abeta 1-42); conditions: Table 2; one cell for the whole line
Excerpt: Cellular Assays: Numerous cell-based assays can be used to evaluate the activity of agent(s) of interest on relative alpha-secretase activity to beta-secretase activity and/or processing of APP to release amyloidogenic versus non-amyloidogenic oligomers.
Human cell lines that normally process Aβ from APP provide a useful means to assay inhibitory activities of the agent(s). Production and release of Aβ and/or other cleavage products into the culture medium can be measured, for example by immunoassay, such as Western blot or enzyme-linked immunoassay (EIA) such as by ELISA.
Relative activity of the alpha-secretase to the beta-secretase can be measured by analysis of one or more cleavage products of the APP substrate. For example, inhibition of beta-secretase activity against the substrate APP would be expected to decrease release of specific beta-secretase induced APP cleavage products such as Aβ (e.g., Aβ40 or Aβ42), sAPPβ and APPneo. Promotion or enhancement of alpha-secretase activity against the substrate APP would be expected to increase release of specific alpha-secretase induced APP cleavage products such as sAPPα and p3 peptide.
In such assays, for example, the cells expressing APP, alpha-secretase and/or beta-secretase are incubated in a culture medium under conditions suitable for alpha-secretase and/or beta-secretase enzymatic activity at its cleavage site on the APP substrate. On exposure of the cells to the agent(s), the amount of Aβ released into the medium and/or the amount of CTF99 fragments of APP in the cell lysates is reduced as compared with the control. The cleavage products of APP can be analyzed, for example, by immune reactions with specific antibodies, as discussed above.

solubility (Sol) = assay type: physicochemical; conditions: Table 3; in words
[2] = pharmacokinetics, brain level (Cmax brain); assay type: in vivo
Excerpt: As is readily apparent, not all compounds were equally able to cross the blood brain barrier, but most compounds did reach pharmacologically meaningful levels given their low IC50 values. FIG. 5A provides a further exemplary compound (FAH65) and FIG. 5B depicts dose response data for Aβ1-42 production in a cell based system. Further shown are effects observed with regard to Aβ1-42 production, sAPPβ and sAPPα formation. […] Here, data are presented for oral and subcutaneous administration (SQ) at dosages of 10- and 30 mg/kg. […] Once more, it should be noted that these exemplary compounds are preferential towards APP in BACE inhibition as can be taken from the data for Aβ1-42, sAPPβ, and sAPPα formation.

[3] = Table 4, several values in a cell = several determinations, read-out: BACE1 IC50
[4] = Tables 1 and 2, read-out: Primary BACE1 IC50

T1 sequence (P56817 46-457 limits assumed): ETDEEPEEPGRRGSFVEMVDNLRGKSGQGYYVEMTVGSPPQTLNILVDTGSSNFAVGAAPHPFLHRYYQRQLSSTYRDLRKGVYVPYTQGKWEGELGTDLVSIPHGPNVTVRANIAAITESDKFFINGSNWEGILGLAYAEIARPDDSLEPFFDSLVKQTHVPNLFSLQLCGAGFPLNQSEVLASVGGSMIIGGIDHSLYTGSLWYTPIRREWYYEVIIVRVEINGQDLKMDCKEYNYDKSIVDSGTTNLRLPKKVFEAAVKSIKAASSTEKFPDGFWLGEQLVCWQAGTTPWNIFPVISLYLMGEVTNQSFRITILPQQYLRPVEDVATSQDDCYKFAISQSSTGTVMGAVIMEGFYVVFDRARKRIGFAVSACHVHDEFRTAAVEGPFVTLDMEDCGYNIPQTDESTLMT

Row | SMILES | pIC50 (BACE1; [3]) | pIC50 (BACE1; [4]) | other results
1 | COc1ccc(C2(c3ccc(F)cc3F)N=C(N)N(C)C2=O)cc1C (stereo not drawn) [FAH-08] | 5.64 | – | –
2 | Cc1cc(C2(c3cc(F)c(F)c(F)c3)N=C(N)N(C)C2=O)ccc1OC(F)F (stereo not drawn) [FAH-19] | 6.02 | – | –
3 | CC#Cc1cc(C2(c3ccc(OC(F)F)c(C)c3)N=C(N)N(C)C2=O)ccn1 (stereo not drawn) [FAH-57] | 6.62 | – | –
4 | Cc1cc(C2(c3cncnc3)N=C(N)N(C)C2=O)ccc1OC(F)F (stereo not drawn) [FAH-33] | 5.00 | 5.00 | –
5 | Cc1cc(C2(C3CCNCC3)N=C(N)N(C)C2=O)ccc1OC(F)F (stereo not drawn) [FAH-79] | 4.75 | – | –
6 | Cc1cc(C2(C3CCCCC3)N=C(N)N(C)C2=O)ccc1OC(F)F (stereo not drawn) [FAH-59] | 5.82 and 6.12 | 5.82 | Toxicity in secondary cell assay [1]: Toxic
7 | Cc1cc(C2(c3cnn(C)c3)N=C(N)N(C)C2=O)ccc1OC(F)F (stereo not drawn) [30 HCl] | – | 5.70 | –
8 | Cc1cc(C2(c3cccc(F)c3)N=C(N)N(Cc3ccccc3)C2=O)ccc1OC(F)F (stereo not drawn) [FAH-42] | 5.64 and 5.57 | – | –
9 | Cc1cc(C2(c3cncc(F)c3)N=C(N)N(C)C2=O)ccc1OC(F)F (stereo not drawn) [FAH-37] | – | 5.28 | pIC50 (BACE1; Table 3, read-out: IC50): ~5.28; reducing BACE activity in vitro (BACE1; in words, FIG. 2B): less effective; Sol (solubility (Sol)): good; Cmax brain ([2]; (IP), no unit in the cell, neighbours μM): ~0.11 (IP)
10 | COc1cc(C2(c3ccc(OC(F)F)c(C)c3)N=C(N)N(C)C2=O)ccn1 (stereo not drawn) [FAH-48] | 5.32 | 5.32 | –
11 | CN1C(=O)C(c2ccccc2)(c2cc(F)cc(F)c2)N=C1N (stereo not drawn) [FAH-01] | 5.57 and 5.33 | – | –
12 | Cc1cc(C2(c3cccc(C(F)(F)F)c3)N=C(N)N(C)C2=O)ccc1OC(F)F (stereo not drawn) [FAH-28] | 6.42 | 6.42 | –
13 | Cc1cc(C2(c3cc(F)cc(Cl)c3)N=C(N)N(C)C2=O)ccc1OC(F)F (stereo not drawn) [FAH-25] | 6.24 | 6.24 | –
14 | Cc1cc(C2(c3cccc(F)c3)N=C(N)N(C)C2=O)ccc1OC(F)F (stereo not drawn) [FAH-17] | – | 6.82 | pIC50 (BACE1; Table 3, read-out: IC50): ~7.00; Sol (solubility (Sol)): med; Cmax brain ([2]; 10 mg/kg 5Q): ~0.3 µM
15 | CNCc1cccc(C2(c3ccc(OC(F)F)c(C)c3)N=C(N)N(C)C2=O)c1 (stereo not drawn) [FAH-62] | 6.43 | 6.22 | pIC50 (BACE1; Table 3, read-out: IC50): ~7.22; Sol (solubility (Sol)): excellent
16 | Cc1cc(C2(c3cccc(Cl)c3)N=C(N)N(C)C2=O)ccc1OC(F)F (stereo not drawn) [FAH-23] | 6.49 | 6.49 | –
17 | COc1ccc(C2(c3cc(F)cc(F)c3)N=C(N)N(C)C2=O)cn1 (stereo not drawn) [FAH-11] | 5.74 | – | –
18 | Cc1cc(C)cc(C2(c3cc(F)cc(F)c3)N=C(N)N(C)C2=O)c1 (stereo not drawn) [FAH-05] | 5.19 | – | –
19 | CN1C(=O)C(c2ccc(OC(F)F)cc2)(c2cccc(-c3cncnc3)c2)N=C1N (stereo not drawn) [FAH-74] | 8.00 | – | pIC50 (BACE1; in vitro BACE inhibition assay, FIG. 8, read-out: IC50): 8.05
20 | COc1ccc(C2(c3cc(F)cc(F)c3)N=C(N)N(C)C2=O)cc1F (stereo not drawn) [FAH-12] | 5.59 | – | –
21 | Cc1cc(C2(c3ccnc(F)c3)N=C(N)N(C)C2=O)ccc1OC(F)F (stereo not drawn) [FAH-46] | 5.80 | 5.92 | pIC50 (BACE1; Table 3, read-out: IC50): ~5.92; Sol (solubility (Sol)): good; Cmax brain ([2]; 10 mg/kg 5Q): ~0.3 µM; Cmax brain ([2]; 30 mg/kg): 1.3 μM @ 30 mL
22 | Cc1cc(C2(c3cccc(-c4ccccc4)c3)N=C(N)N(C)C2=O)ccc1OC(F)F (stereo not drawn) [FAH-73] | 6.06 | – | –
